Measured values as given in US8501936B2 (priority 2009, dated 2013).
pIC50: −log10 of the molar value.

Assays:
[1] = molecular target: human JAK2 (Homo sapiens (Human), UniProt O60674); conditions: read-out: JAK2 IC50
[2] = molecular target: human FAK (Homo sapiens (Human), UniProt Q05397); conditions: read-out: FAK IC50
human FAK, sequence (Q05397 whole entry): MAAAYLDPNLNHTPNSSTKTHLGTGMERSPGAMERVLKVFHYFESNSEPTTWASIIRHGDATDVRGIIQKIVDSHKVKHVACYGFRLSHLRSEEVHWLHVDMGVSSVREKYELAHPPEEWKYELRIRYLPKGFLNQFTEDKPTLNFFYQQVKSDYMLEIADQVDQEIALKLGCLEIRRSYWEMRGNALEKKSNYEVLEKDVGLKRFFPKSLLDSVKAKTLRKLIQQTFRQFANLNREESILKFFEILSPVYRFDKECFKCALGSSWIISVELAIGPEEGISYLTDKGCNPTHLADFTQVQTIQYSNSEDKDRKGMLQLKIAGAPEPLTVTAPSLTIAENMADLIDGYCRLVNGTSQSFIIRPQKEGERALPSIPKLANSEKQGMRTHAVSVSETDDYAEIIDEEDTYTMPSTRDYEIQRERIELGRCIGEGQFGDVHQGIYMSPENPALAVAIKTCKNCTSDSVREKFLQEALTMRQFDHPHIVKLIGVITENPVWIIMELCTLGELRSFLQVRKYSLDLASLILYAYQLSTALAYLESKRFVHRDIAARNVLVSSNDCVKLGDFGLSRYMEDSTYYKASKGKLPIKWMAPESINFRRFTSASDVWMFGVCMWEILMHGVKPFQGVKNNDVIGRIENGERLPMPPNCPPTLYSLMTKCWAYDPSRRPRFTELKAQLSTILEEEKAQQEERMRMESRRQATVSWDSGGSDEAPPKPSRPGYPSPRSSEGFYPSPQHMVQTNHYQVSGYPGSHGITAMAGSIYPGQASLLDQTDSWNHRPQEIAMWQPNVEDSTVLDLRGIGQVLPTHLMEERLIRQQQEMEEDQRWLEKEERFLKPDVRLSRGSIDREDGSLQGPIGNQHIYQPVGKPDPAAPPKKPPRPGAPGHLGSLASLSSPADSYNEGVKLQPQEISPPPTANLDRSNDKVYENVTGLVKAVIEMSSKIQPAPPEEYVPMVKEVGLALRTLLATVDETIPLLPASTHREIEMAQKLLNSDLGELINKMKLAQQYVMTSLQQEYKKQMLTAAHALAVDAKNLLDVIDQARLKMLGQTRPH
Description: The ability of compounds to inhibit the kinase activity of baculovirus-expressed human FAK and PYK2 was measured using the 96-well plate TRF assay system described above for JAK2. […] For the FAK kinase assay, the reaction mixture (total volume=100 μL/well) contained 20 mM HEPES (pH 7.2), 10 μM ATP, 5 mM MgCl2, 0.5 mM DTT, 0.1% BSA, and test compound (diluted in DMSO; 2.5% DMSO final in assay). For PYK2, the 100 μL assay solution consisted of 20 mM HEPES (pH 7.2), 3 μM ATP, 5 mM MnCl2, 0.1% BSA, and test compound (diluted in DMSO; 2.5% DMSO final in assay). Enzyme (10 ng/mL FAK or 25 ng/mL PYK2) was added and the reaction was allowed to proceed at room temperature for 30 min. Detection of the phosphorylated product was performed by adding 100 μL/well of Eu—N1 labeled PY100 antibody diluted 1:75000 in 0.25% BSA in TBS-T (PerkinElmer #AD0041). […] Inhibition data were analyzed using ActivityBase and IC50 curves generated using XLFit.

human JAK2, sequence (O60674 815-1132): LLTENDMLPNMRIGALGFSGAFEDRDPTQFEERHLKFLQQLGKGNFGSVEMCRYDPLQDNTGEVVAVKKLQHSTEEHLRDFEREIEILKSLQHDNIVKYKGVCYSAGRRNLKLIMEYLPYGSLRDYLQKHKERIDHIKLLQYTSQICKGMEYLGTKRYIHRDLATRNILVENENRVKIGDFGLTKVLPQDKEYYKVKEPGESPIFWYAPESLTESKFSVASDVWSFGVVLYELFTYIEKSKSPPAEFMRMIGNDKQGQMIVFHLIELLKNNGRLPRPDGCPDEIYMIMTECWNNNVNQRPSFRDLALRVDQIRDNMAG

Row | Structure (SMILES) | pIC50 [1] | pIC50 [2]
1 | CN1CCN(c2ccc(Nc3nc4c(NCc5ccccc5CN(C)S(C)(=O)=O)cccn4n3)cc2)CC1 [Example 156, N-Methyl-N-[2-({2-[4-(4-methyl-piperazin-1-yl)-phenylamino]-[1,2,4]triazolo[1,5-a]pyridin-8-ylamino}-methyl)-benzyl]-methanesulfonamide] | 7.45 | 6.75
2 | CS(=O)(=O)c1ccc(-c2cccn3nc(NCCc4cccnc4)nc23)cc1 [Example 407, [8-(4-Methanesulfonyl-phenyl)-[1,2,4]triazolo[1,5-a]pyridin-2-yl]-(2-pyridin-3-yl-ethyl)-amine] | 5.70 | 5.00
3 | CS(=O)(=O)c1ccc(-c2cccn3nc(Nc4cccc(N5CCN(CCCF)CC5)c4)nc23)cc1 [Example 187, {3-[4-(3-Fluoro-propyl)-piperazin-1-yl]-phenyl}-[8-(4-methanesulfonyl-phenyl)-[1,2,4]triazolo[1,5-a]pyridin-2-yl]-amine] | 8.31 | 5.61
4 | CN1CCN(Cc2cccc(Nc3nc4c(-c5ccc(S(C)(=O)=O)cc5)cccn4n3)c2)CC1 [Example 116, [8-(4-Methanesulfonyl-phenyl)-[1,2,4]triazolo[1,5-a]pyridin-2-yl]-[3-(4-methyl-piperazin-1-ylmethyl)-phenyl]-amine] | 8.51 | 5.52
5 | COc1ccc(Nc2nc3c(NCc4ccccc4OC)cccn3n2)cn1 [Example 402, N(8)-(2-Methoxy-benzyl)-N(2)-(6-methoxy-pyridin-3-yl)-[1,2,4]triazolo[1,5-a]pyridine-2,8-diamine] | 7.37 | 5.52
6 | CS(=O)(=O)c1ccc(-c2cccn3nc(Nc4cccc(N5CCNCC5)c4)nc23)cc1 [Example 181, [8-(4-Methanesulfonyl-phenyl)-[1,2,4]triazolo[1,5-a]pyridin-2-yl]-(3-piperazin-1-yl-phenyl)-amine] | 9.01 | 5.95
7 | CS(=O)(=O)c1ccc(-c2cccn3nc(Nc4cccc(CN5CCS(=O)(=O)CC5)c4)nc23)cc1 [Example 120, N-{3-[(1,1-dioxidothiomorpholin-4-yl)methyl]phenyl}-8-[4-(methylsulfonyl)phenyl][1,2,4]triazolo[1,5-a]pyridin-2-amine] | 9.17 | 5.70
8 | COc1cccc(Nc2nc3c(-c4ccc(S(C)(=O)=O)cc4)cccn3n2)c1 [Example 40, [8-(4-Methanesulfonyl-phenyl)-[1,2,4]triazolo[1,5-a]pyridin-2-yl]-(3-methoxy-phenyl)-amine] | 9.00 | 5.87
9 | CS(=O)(=O)CCN1CCc2ccc(Nc3nc4c(-c5cccc6c5OC(F)(F)O6)cccn4n3)cc2CC1 [Example 247, [8-(2,2-difluoro-1,3-benzodioxol-4-yl)-[1,2,4]triazolo[1,5-a]pyridin-2-yl]-[3-(2-methanesulfonyl-ethyl)-2,3,4,5-tetrahydro-1H-3-benzazepin-7-yl)amine] | 7.61 | 5.70
10 | CS(=O)(=O)c1ccc(-c2cccc3nc(Nc4ccc(OCCN5CCCC5)cc4)nn23)cc1 [Example 73, [5-(4-Methanesulfonyl-phenyl)-[1,2,4]triazolo[1,5-a]pyridin-2-yl]-[4-(2-pyrrolidin-1-yl-ethoxy)-phenyl]-amine] | 8.68 | 6.64
11 | CN1CCN(C2CCN(c3ccc(Nc4nc5c(-c6ccc(S(C)(=O)=O)cc6)cccn5n4)cc3)CC2)CC1 [Example 51, [8-(4-Methanesulfonyl-phenyl)-[1,2,4]triazolo[1,5-a]pyridin-2-yl]-{4-[4-(4-methyl-piperazin-1-yl)-piperidin-1-yl]-phenyl}-amine] | 8.74 | 6.77
12 | CCOc1ccc(Cl)cc1-c1cccn2nc(Nc3ccc4c(c3)CCNCC4)nc12 [Example 310, [8-(5-Chloro-2-ethoxy-phenyl]-[1,2,4]triazolo[1,5a]pyridine-2-yl]-(2,3,4,5-tetrahydro-benzo[d]azepin-7-yl)-amine] | 7.48 | 5.91
13 | CN1CCN(c2cccc(Nc3nc4c(NCc5ccccc5F)cccn4n3)c2)CC1 [Example 395, N(8)-(2-Fluoro-benzyl)-N(2)-[3-(4-methyl-piperazin-1-yl)-phenyl]-[1,2,4]triazolo[1,5-a]pyridine-2,8-diamine] | 6.74 | 5.83
14 | COc1ccc(Nc2nc3c(-c4cn[nH]c4)cccn3n2)cc1 [Example 39, (4-Methoxy-phenyl)-[8-(1H-pyrazol-4-yl)-[1,2,4]triazolo[1,5-a]pyridin-2-yl]-amine] | 7.49 | 5.63
15 | CC(=O)Nc1cccc(Nc2nc3c(-c4ccc(S(C)(=O)=O)cc4)cccn3n2)c1 [Example 267, N-{3-[8-(4-Methanesulfonyl-phenyl)-[1,2,4]triazolo[1,5-a]pyridin-2-ylamino]-phenyl}-acetamide] | 8.46 | 5.00
16 | COc1ccc(C(F)(F)F)cc1-c1cccc2nc(Nc3ccc4c(c3)CCNCC4)nn12 [Example 234, [5-(2-Methoxy-5-trifluoromethyl-phenyl)-[1,2,4]triazolo[1,5-a]pyridine-2-yl]-(2,3,4,5-tetrahydro-1H-benzo[d]azepin-7-yl)-amine] | 7.63 | 6.26

Row | Structure (SMILES) | pIC50 [1] | pIC50 [2]
17 | CN1CCN(c2ccc(Nc3nc4c(-c5ccc(CS(C)(=O)=O)cc5)cccn4n3)cc2)CC1 [Example 48, [8-(4-Methanesulfonylmethyl-phenyl)-[1,2,4]triazolo[1,5-a]pyridin-2-yl]-[4-(4-methyl-piperazin-1-yl)-phenyl]-amine] | 9.15 | 5.76
18 | CN1Cc2ccc(Nc3nc4c(-c5ccc(S(C)(=O)=O)cc5)cccn4n3)cc2C1 [Example 168, [8-(4-Methanesulfonyl-phenyl)-[1,2,4]triazolo[1,5-a]pyridin-2-yl]-(2-methyl-2,3-dihydro-1H-isoindol-5-yl)-amine] | 9.14 | 6.09
19 | COc1ccccc1CNc1cccn2nc(Nc3ccc(N4CCN(C)CC4)cc3)nc12 [Example 387, N(8)-(2-Methoxy-benzyl)-N(2)-[4-(4-methyl-piperazin-1-yl)-phenyl]-[1,2,4]triazolo[1,5-a]pyridine-2,8-diamine] | 7.91 | 6.26
20 | COc1cccc(CNc2cccn3nc(Nc4ccc(OC)nc4)nc23)c1 [Example 394, N(8)-(3-Methoxy-benzyl)-N(2)-(6-methoxy-pyridin-3-yl)-[1,2,4]triazolo[1,5-a]pyridine-2,8-diamine] | 5.00 | 5.00
21 | CN(Cc1cccc(-c2cccn3nc(Nc4ccc(OCCN5CCCC5)cc4)nc23)c1)S(C)(=O)=O [Example 177, N-Methyl-N-(3-{2-[4-(2-pyrrolidin-1-yl-ethoxy)-phenylamino]-[1,2,4]triazolo[1,5-a]pyridin-8-yl}-benzyl)-methanesulfonamide] | 8.13 | 5.52
22 | CN1CCN(c2ccc(Nc3nc4c(-c5cccc(S(C)(=O)=O)c5)cccn4n3)cc2)CC1 [Example 59, [8-(3-Methanesulfonyl-phenyl)-[1,2,4]triazolo[1,5-a]pyridin-2-yl]-[4-(4-methyl-piperazin-1-yl)-phenyl]-amine] | 8.48 | 5.59
23 | CN1CCN(Cc2ccc(Nc3nc4cccc(-c5ccc(S(C)(=O)=O)cc5)n4n3)cc2)CC1 [Example 86, [5-(4-Methanesulfonyl-phenyl)-[1,2,4]triazolo[1,5-a]pyridin-2-yl]-[4-(4-methyl-piperazin-1-ylmethyl)-phenyl]-amine] | 8.77 | 6.58
24 | CS(=O)(=O)c1ccc(-c2cccn3nc(Nc4ccc(OCCN5CCOCC5)cc4)nc23)cc1 [Example 26, [8-(4-Methanesulfonyl-phenyl)-[1,2,4]triazolo[1,5-a]pyridin-2-yl]-[4-(2-morpholin-4-yl-ethoxy)-phenyl]-amine] | 8.89 | 6.23
25 | CS(=O)(=O)c1cccc(-c2cccn3nc(Nc4ccc(OCCN5CCCC5)cc4)nc23)c1 [Example 13, [8-(3-Methanesulfonyl-phenyl)-[1,2,4]triazolo[1,5-a]pyridin-2-yl]-[4-(2-pyrrolidin-1-yl-ethoxy)-phenyl]-amine] | 8.52 | 6.28
26 | CS(=O)(=O)c1ccc(-c2cccn3nc(NCc4ccccn4)nc23)cc1 [Example 409, [8-(4-Methanesulfonyl-phenyl)-[1,2,4]triazolo[1,5-a]pyridin-2-yl]-pyridin-2-ylmethyl-amine] | 5.19 | 5.00
27 | CN1CCN(c2ccc(Nc3nc4c(Nc5ccccc5CN(C)S(C)(=O)=O)cccn4n3)cc2)CC1 [Example 171, N-Methyl-N-(2-{2-[4-(4-methyl-piperazin-1-yl)-phenylamino]-[1,2,4]triazolo[1,5-a]pyridin-8-ylamino}-benzyl)-methanesulfonamide] | 7.15 | 6.00
28 | CN1CCN(c2ccc(Nc3nc4c(-c5ccccc5S(C)(=O)=O)cccn4n3)cc2)CC1 [Example 66, [8-(2-Methanesulfonyl-phenyl)-[1,2,4]triazolo[1,5-a]pyridin-2-yl]-[4-(4-methyl-piperazin-1-yl)-phenyl]-amine] | 5.88 | 5.00
29 | CN(c1ccccc1CNc1cccn2nc(Nc3ccc(OCCN4CCCC4)cc3)nc12)S(C)(=O)=O [Example 150, N-Methyl-N-[2-({2-[4-(2-pyrrolidin-1-yl-ethoxy)-phenylamino]-[1,2,4]triazolo[1,5-a]pyridin-8-ylamino}-methyl)-phenyl]-methanesulfonamide] | 7.36 | 7.89
30 | CS(=O)(=O)c1ccc(-c2cccn3nc(Nc4cnn(CCN5CCCC5)c4)nc23)cc1 [Example 219, [8-(4-Methanesulfonyl-phenyl)-[1,2,4]triazolo[1,5-a]pyridin-2-yl]-(1-(2-pyrrolidin-1-yl-ethyl)-1H-pyrazol-4-yl]-amine] | 7.86 | 5.00
31 | CN1CCN(c2ccc(Nc3nc4c(-c5ccc(N(C)S(C)(=O)=O)cc5)cccn4n3)cc2)CC1 [Example 62, N-Methyl-N-(4-{2-[4-(4-methyl-piperazin-1-yl)-phenylamino]-[1,2,4]triazolo[1,5-a]pyridin-8-yl}-phenyl)-methanesulfonamide] | 9.22 | 6.00
